pEC50, pKi: −log10 of the molar value.
Assays:
CB1 receptor [1] = biological target: T1, CB1 receptor (Homo sapiens, UniProt P21554); assay: cAMP Assay #1: CB1 adenylylcyclase assay in CHO cells; assay type: cell-based; parameters: expressed in transfected cells; host or cells: CHO cells
Method: (§1) Compounds of the invention were assayed in an adenylylcyclase assay to determine agonist activity on the CB1 and CB2 receptors, the results of which are provided in Table 4. Exemplary methods for the adenylylcyclase assay can be found in the literature, for example, in Rhee, M-H., et al. Cannabinol Derivatives: Binding to Cannabinoid Receptors and Inhibition of Adenylylcyclase. J Med Chem. 40: 3228-3233 (1997).
CB1 Activity as determined by Adenylylcyclase Assay: CB1 receptor agonist activity was measured by measuring cAMP production. A compound of the invention was incubated with CHO cells expressing human recombinant CB1 for 20 minutes at 37° C.
(§2) Determination of EC50 values: The EC50 values (concentration producing a half-maximal response) were determined by non-linear regression analysis of the concentration-response curves generated with mean replicate values using Hill equation curve fitting: Y=D+[(A−D)/(1+(C/C50)^nH)], where Y=response, A=left asymptote of the curve, D=right asymptote of the curve, C=compound concentration, and C50=EC50, and nH=slope factor. This analysis was performed using software developed at Cerep (Hill software) and validated by comparison with data generated by the commercial software SigmaPlot® 4.0 for Windows® (© 1997 by SPSS Inc.).

CB2 receptor [2] = biological target: T2, CB2 receptor (Homo sapiens, UniProt P34972); assay: cAMP Assay #1: CB2 adenylylcyclase assay in CHO cells; assay type: cell-based; parameters: expressed in transfected cells; host or cells: CHO cells
T2 sequence (P34972 whole entry): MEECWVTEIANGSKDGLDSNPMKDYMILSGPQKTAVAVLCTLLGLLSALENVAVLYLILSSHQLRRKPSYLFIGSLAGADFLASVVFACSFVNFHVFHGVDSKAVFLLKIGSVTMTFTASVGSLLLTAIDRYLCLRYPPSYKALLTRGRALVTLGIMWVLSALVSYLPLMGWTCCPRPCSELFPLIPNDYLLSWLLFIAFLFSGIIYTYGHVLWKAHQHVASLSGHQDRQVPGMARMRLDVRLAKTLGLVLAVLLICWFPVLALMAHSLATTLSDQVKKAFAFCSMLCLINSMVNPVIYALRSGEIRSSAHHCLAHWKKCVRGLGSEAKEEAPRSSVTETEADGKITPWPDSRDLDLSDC
Method: as §1
CB2 Activity as determined by Adenylylcyclase Assay: CB2 receptor agonist activity was measured by measuring cAMP production. A compound of the invention was incubated with CHO cells expressing human recombinant CB2 for 10 minutes at 37° C.
as §2

CB2 receptor [3] = biological target: T2, CB2 receptor; assay: cell-based; parameters: host or cells: cAMP Hunter cell lines; settings: PathHunter agonist mode; read-out: CB2 Activity (β-Arrestin)
Method in brief: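 PathHunter β-Arrestin enzyme fragment complementation cells, EA-tagged β-Arrestin and PK-tagged receptor, exposed to compound for 90 to 180 minutes at 37° C. or room temperature, 1% vehicle. Chemiluminescence read 1 h after detection reagent; agonist % activity relative to vehicle and MAX control ligand.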

CB1 receptor [4] = biological target: T1, CB1 receptor; assay: CB1 competitive radioligand binding assay ([3H] SR141716A); parameters: expressed in transfected cells; host or cells: Chem-1 cells
Method in brief: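 Chem-1 cells expressing human recombinant CB1 incubated 90 min at 37° C with 2.0 nM [3H]SR141716A and compound at 0.5 μM (1% DMSO) in HEPES pH 7.4 buffer with MgCl2, CaCl2, 0.2% BSA. Read-out is % inhibition of radioligand binding.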

CB1 receptor [5] = biological target: T1, CB1 receptor; assay: cell-based; parameters: host or cells: PathHunter cell lines
CB2 receptor [6] = biological target: T2, CB2 receptor; assay: CB2 competitive radioligand binding assay ([3H] WIN-55,212-2); parameters: expressed in transfected cells; host or cells: CHO-K1 cells
Method in brief: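 Single-concentration displacement: 2.4 nM [3H]WIN-55,212-2 competed with 0.05 μM compound (1% DMSO) for 90 min at 37 °C on human CB2 expressed in CHO-K1 cells (HEPES 20 mM, pH 7.0, 0.5% BSA). Result given as % inhibition of bound radioligand.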

LPS-induced PBMCs = assay: Inflammatory cytokine release from LPS-induced PBMCs (Luminex); assay type: cell-based, human; settings: fold change from LPS-treated PBMCs; compounds 10 μM (DEX 1 μg/ml) 2 h, then LPS 0.1 μg/ml 24 h; negative = reduced
Method: Compounds of the invention were assayed for their effect on inflammatory cytokine release from lipopolysaccharides (LPS)-induced PBMCs, isolated from a human blood sample, the results of which are provided in Table 7 as fold change. Exemplary methods for quantifying secretion of inflammatory cytokines in PBMCs are known in the art, for example, as described in Hailer et al., Infection and Immunity. 68(2):752-759 (2000); and Merlini et al., Frontiers in Immunology. 7:614 (2016); each of which is incorporated herein by reference with respect to methods for evaluating cytokine release in PBMCs.
In brief, human blood samples from healthy volunteers were collected and PBMCs were isolated. PBMCs were cultured and each compound was assayed in triplicate at a final concentration of 10 μM for 2 hours. 1 μg/ml dexamethasone (DEX) served as a positive control. LPS was added at a final concentration of 0.1 μg/ml and further incubated for 24 hours. At the end of the incubation, the supernatants were collected and the levels of a panel of secreted cytokines were measured by a Human Magnetic Luminex® assay (R&D). The results in Table 7 are presented as a fold change from LPS-treated PBMCs. Reduced levels are expressed by negative values. OOR denotes values that are out of the standard curve range for the specific cytokine and thus, could not be accurately measured. Cytotoxicity was also determined. Compounds with cytotoxicity ≥50% was considered cytotoxic. Baseline cytotoxicity of untreated PBMCs was 17% and all compounds presented in Table 7 induced cytotoxicity below 25%.

CB1 receptor [7] = biological target: T1, CB1 receptor; assay: cAMP Assay #2: Hit Hunter cAMP assay, Gi-coupled agonist activity, CB1; assay type: cell-based; parameters: host or cells: PathHunter cell lines
Method: (§3) Compounds of the invention were assayed in the Hit Hunter® cAMP assay to determine Gi-coupled agonist activity on the CB1 and CB2 receptors, the results of which are provided in Table 5.
(§4) The Hit Hunter® cAMP assay monitors the activation of a GPCR via Gi and […] secondary messenger signaling in a homogenous, non-imaging assay format using a technology developed by DiscoverX called Enzyme Fragment Complementation (EFC) with β-galactosidase (β-Gal) as the functional reporter. […] ED is fused to cAMP and in the assay competes with cAMP generated by cells for binding to a cAMP-specific antibody. Active β-Gal is formed by complementation of exogenous EA to any unbound ED cAMP. Active enzymes can then convert a chemiluminescent substrate, generating an output signal detectable on a standard microplate reader.
(§5) cAMP Hunter cell lines were expanded from freezer stocks according to standard procedures. Cells were seeded in a total volume of 20 μL into white walled, 384-well microplates and incubated at 37° C. for the appropriate time prior to testing. cAMP modulation was determined using the DiscoverX Hit Hunter cAMP XS+ assay. For Gi agonist activity determination, cells were incubated with sample in the presence of EC80 forskolin to induce response (20 μM and 25 μM in the CB1 and CB2 assays, respectively). Media was aspirated from cells and replaced with 15 μL 2:1 HBSS/10 mM HEPES:cAMP XS+Ab reagent.
(§6) Intermediate dilution of sample stocks was performed to generate 4× sample in assay buffer. 5 μL of 4× compound was added to cells and incubated at 37° C. or room temperature for 30 or 60 minutes. Final vehicle concentration was 1%. Assay signal was generated through incubation with 20 μL cAMP XS+ED/CL lysis cocktail for one hour at room temperature. Microplates were read following signal generation with a PerkinElmer Envision™ instrument for chemiluminescent signal detection. Compound activity was analyzed using CBIS data analysis suite (Chem Innovation, CA). For agonist assays, percentage activity was calculated using the following formula: % Activity=100%×(1−(mean RLU of test sample−mean RLU of Max control ligand)/(mean RLU of vehicle control−mean RLU of Max control ligand). Control ligand was the non-selective CB1/CB2 agonist CP55,940.

CB2 receptor [8] = biological target: T2, CB2 receptor; assay: cAMP Assay #2: Hit Hunter cAMP assay, Gi-coupled agonist activity, CB2; assay type: cell-based; parameters: host or cells: cAMP Hunter cell lines
Method: as §3, §4, §5, §6

T1 sequence (P21554 whole entry): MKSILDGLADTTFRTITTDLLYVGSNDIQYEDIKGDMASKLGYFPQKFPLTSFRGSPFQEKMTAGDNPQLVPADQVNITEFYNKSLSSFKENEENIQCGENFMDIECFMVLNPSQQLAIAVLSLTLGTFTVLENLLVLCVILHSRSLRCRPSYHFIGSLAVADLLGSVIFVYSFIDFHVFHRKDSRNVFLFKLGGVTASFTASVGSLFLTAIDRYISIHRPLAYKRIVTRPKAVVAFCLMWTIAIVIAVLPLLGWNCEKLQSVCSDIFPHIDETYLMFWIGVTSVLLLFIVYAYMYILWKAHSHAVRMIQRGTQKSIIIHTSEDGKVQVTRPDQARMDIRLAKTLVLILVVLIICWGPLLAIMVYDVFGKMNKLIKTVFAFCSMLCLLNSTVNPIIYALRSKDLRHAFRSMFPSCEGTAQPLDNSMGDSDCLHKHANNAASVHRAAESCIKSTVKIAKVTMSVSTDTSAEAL

Row | SMILES | pEC50 (CB1 receptor [1]) | pEC50 (CB2 receptor [2]) | pEC50 (CB2 receptor [3]) | pKi (CB1 receptor [4]) | pEC50 (CB1 receptor [5]) | pKi (CB2 receptor [6]) | also measured
1 | CCCCCCC(C)(C)c1cc(O)c2c(c1)OC(C)(C)[C@@H]1CC=C(C(=O)OC)C[C@@H]21 [Compound 28, Methyl (6aR,10aR)-1-hydroxy-6,6-dimethyl-3-(2-methyloctan-2-yl)-6a,7,10,10a-tetrahydro-6H-benzo[c]chromene-9-carboxylate] | 8.09 | 7.23 | 8.77 | 6.16 | 6.18 | 7.49 | inhibition at 0.5 µM (CB1 receptor [4]; 0.5 μM compound, 2.0 nM [3H] SR141716A, 90 min 37° C.): 74%; inhibition at 0.05 µM (CB2 receptor [6]; 0.05 μM compound, 2.4 nM [3H] WIN-55,212-2, 90 min 37° C.): 77%; Fold Selectivity (CB1/CB2) (CB2 receptor [6]; Table 2, ratio of Ki CB1/CB2): 22
2 | CCCCCCC(C)(C)c1cc(OC)c2c(c1)OC(C)(C)[C@@H]1CC=C(C(=O)O)C[C@@H]21 [Compound 34, (6aR,10aR)-1-methoxy-6,6-dimethyl-3-(2-methyloctan-2-yl)-6a,7,10,10a-tetrahydro-6H-benzo[c]chromene-9-carboxylic acid] | < 6.52 | < 6.52 | < 5.52 | < 5.52 | < 5.52 | < 5.52 | –
3 | CCCCCCC(C)(C)c1cc(O)c2c(c1)OC(C)(C)[C@@H]1CC=C(C(=O)NC3CC(F)(F)C3)C[C@@H]21 [Compound 89, (6aR,10aR)-N-(3,3-difluorocyclobutyl)-1-hydroxy-6,6-dimethyl-3-(2-methyloctan-2-yl)-6a,7,10,10a-tetrahydro-6H-benzo[c]chromene-9-carboxamide] | – | – | 8.72 | 7.21 | 7.48 | 8.37 | IL17A (LPS-induced PBMCs): −14.0 fold change; IL-1β (LPS-induced PBMCs): −4.8 fold change; IL-4 (LPS-induced PBMCs): −3.8 fold change; IL-6 (LPS-induced PBMCs): −237.0 fold change; IL-8 (LPS-induced PBMCs): −4.2 fold change; IL-10 (LPS-induced PBMCs): −960.1 fold change; MCP-1 (LPS-induced PBMCs): −143.8 fold change; TNFα (LPS-induced PBMCs): −35.6 fold change; pEC50 (CB1 receptor [7]): 7.36; Fold Selectivity (CB1/CB2) (CB2 receptor [6]; Table 3, ratio of Ki CB1/CB2): 14.4; pEC50 (CB2 receptor [8]): 8.89; CB2 fold selectivity (CB2 receptor [8]; Hit Hunter cAMP, CB1 EC50 / CB2 EC50): 34.6

Source: patent US20210284621A1 (priority 2018, published 2021)
